From ChEMBL document CHEMBL1127177, “(E) and (Z)5-fluoro olefin carbocyclic nucleosides: effect of olefin geometry on inhibition of s-adenosyl-l-homocysteine hydrolase” (Bioorg Med Chem Lett, 1993)

Columns and labels:
[1] = molecular target: T1, Adenosylhomocysteinase (Rattus norvegicus) (UniProt P10760)
T1 sequence (whole entry): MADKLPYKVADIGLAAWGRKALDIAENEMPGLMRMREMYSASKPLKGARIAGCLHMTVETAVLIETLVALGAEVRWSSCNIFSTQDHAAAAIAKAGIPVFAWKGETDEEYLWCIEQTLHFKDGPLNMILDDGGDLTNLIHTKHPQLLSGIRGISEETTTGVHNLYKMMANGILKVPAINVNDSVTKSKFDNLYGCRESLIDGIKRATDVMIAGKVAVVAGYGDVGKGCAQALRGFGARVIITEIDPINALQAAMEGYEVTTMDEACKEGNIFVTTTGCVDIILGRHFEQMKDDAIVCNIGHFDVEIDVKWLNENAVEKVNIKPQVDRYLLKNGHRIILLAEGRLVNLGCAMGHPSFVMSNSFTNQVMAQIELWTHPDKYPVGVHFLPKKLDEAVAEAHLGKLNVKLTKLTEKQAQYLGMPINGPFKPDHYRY
Description: Tested for rate constant for inactivation of S-adenosyl-L-homocysteine hydrolase from rat

Adenosylhomocysteinase = molecular target: T2, Adenosylhomocysteinase (Rattus norvegicus, UniProt P10760); test: Tested for binding affinity of compound against S-adenosyl-L-homocysteine hydrolase
T2 sequence (P10760 whole entry): T1 sequence (whole entry)

T-cell [2] = test: Tested for inhibition of T cell proliferation; assay type: functional, cell-based; conditions: Mus musculus
T-cell [3] = test: Inhibition of T cell proliferation was determined using murine splenic mononuclear cells; assay type: functional, cell-based; conditions: Mus musculus

| K inact [1] | Ki (Adenosylhomocysteinase) | Compound | IC50 (T-cell [2]) | IC50 (T-cell [3]) |
| --- | --- | --- | --- | --- |
| 0.18 min⁻¹ | 6.9 µM | Nc1ncnc2c1ncn2C1C/C(=C\F)C(O)C1O (stereo not given) | 0.8 µM | – |
| – | 1.1 µM | Nc1ncnc2c1ncn2C1C/C(=C/F)C(O)C1O (stereo not given) | – | 6.7 µM |
